In ChEMBL document CHEMBL1201862, “PubChem BioAssay data set” (2004) one finds EC50, IC50 and AC50 data, which are given here for four molecules.

Molecules are shown by their SMILES. Calls of active or inactive are those of the source. Bounds are passed on as bounds.

One assay deals with T-cell. Briefly: loss of vesicle association with mouse CD8+ T cells – mouse 2C CD8+ T cells, flow cytometry, dose response (AID 485284). It counts as functional.
For assay [1], the target named is T1, Dual specificity protein phosphatase 3 (Homo sapiens, UniProt P51452). Briefly: SAR VHR1 absorbance Assay for In Vitro dose response studies. [Related pubchem assays (depositor defined):AID1654, AID1661, AID1878, AID1992, AID2004].
T1 sequence (P51452 whole entry): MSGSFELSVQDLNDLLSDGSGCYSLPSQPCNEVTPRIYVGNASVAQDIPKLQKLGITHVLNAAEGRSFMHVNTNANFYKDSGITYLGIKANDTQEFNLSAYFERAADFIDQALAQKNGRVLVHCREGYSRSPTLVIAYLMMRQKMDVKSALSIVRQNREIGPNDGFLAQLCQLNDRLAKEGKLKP
The target of assay [2] is T1, Dual specificity protein phosphatase 3. Briefly: SAR VHR1 Fluorescent Assay for In Vitro dose response studies. [Related pubchem assays (depositor defined):AID1654, AID1661, AID1878, AID1992, AID2004, AID2070, AID2085]. It counts as functional.
For assay [3], the target named is T2, Tyrosine-protein phosphatase non-receptor type 7 (Homo sapiens, UniProt P35236).
T2 sequence (P35236 whole entry): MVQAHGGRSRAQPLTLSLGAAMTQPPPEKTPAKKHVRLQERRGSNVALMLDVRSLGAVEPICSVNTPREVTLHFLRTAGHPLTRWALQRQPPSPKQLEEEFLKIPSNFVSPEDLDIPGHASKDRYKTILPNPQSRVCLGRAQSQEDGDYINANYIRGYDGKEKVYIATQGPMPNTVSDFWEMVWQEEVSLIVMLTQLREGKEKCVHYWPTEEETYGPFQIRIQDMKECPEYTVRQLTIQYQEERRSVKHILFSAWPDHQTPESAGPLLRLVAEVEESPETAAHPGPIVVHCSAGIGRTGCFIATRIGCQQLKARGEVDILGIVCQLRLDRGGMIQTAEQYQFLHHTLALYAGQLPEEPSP
Briefly: redox-active compounds inhibiting HePTP phosphatase – biochemical, fluorescence, mechanism study (AID 2068). It counts as functional.

Assay [4] deals with T3, Dual specificity protein phosphatase 6 (Rattus norvegicus, UniProt Q64346).
T3 sequence (Q64346 whole entry): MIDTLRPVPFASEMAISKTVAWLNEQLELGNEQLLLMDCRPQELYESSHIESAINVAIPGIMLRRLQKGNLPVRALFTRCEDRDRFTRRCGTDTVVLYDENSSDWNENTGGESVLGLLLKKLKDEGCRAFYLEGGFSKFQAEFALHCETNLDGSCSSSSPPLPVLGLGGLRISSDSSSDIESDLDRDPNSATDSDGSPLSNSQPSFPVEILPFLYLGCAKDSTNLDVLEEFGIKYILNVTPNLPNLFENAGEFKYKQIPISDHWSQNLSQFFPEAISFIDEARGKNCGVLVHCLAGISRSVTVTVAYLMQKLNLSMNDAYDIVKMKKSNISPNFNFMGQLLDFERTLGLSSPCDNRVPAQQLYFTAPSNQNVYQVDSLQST
The assay is classed as functional.

Assay [5] concerns the target Induced myeloid leukemia cell differentiation protein Mcl-1 (Homo sapiens, UniProt Q07820). Briefly: blockers of MCL1 binding to BIM peptide – biochemical, fluorescence polarization, BIM-BH3 peptide, 1536-well, dose response (AID 2217). Background: In fluorescence polarisation assays a small probe gives low polarisation when free and higher when bound to something large.

The target of a further assay is Bcl-2-like protein 1 (Homo sapiens, UniProt Q07817). Briefly: blockers of BCLXL peptide binding – biochemical, fluorescence polarization, 1536-well, selectivity assay for MCL1 inhibitor project, dose response (AID 2218).
Sequence of Bcl-2-like protein 1 (Q07817 whole entry): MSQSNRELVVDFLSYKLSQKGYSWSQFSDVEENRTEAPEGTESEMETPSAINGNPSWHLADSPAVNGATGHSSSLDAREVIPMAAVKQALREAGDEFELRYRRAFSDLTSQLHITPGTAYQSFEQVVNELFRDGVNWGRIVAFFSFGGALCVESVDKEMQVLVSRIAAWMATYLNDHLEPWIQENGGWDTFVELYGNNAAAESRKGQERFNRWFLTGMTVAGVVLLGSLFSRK
For assay [6], the target named is DNA dC->dU-editing enzyme APOBEC-3A (Homo sapiens, UniProt P31941). Briefly: Dose Response confirmation of small molecule APOBEC3A DNA Deaminase Inhibitors via a fluorescence-based single-stranded DNA deaminase assay. [Related pubchem assays (depositor defined):AID493011, AID493024]. It counts as functional.
Sequence of DNA dC->dU-editing enzyme APOBEC-3A (P31941 whole entry): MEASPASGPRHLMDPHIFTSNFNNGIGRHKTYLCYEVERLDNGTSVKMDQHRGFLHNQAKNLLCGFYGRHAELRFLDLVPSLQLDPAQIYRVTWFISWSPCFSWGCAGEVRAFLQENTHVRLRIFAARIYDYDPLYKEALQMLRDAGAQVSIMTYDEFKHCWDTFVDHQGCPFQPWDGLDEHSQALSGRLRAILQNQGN
Assay [7] addresses DNA dC->dU-editing enzyme APOBEC-3G (Homo sapiens, UniProt Q9HC16). It counts as functional.
The target of another assay is Caspase-6 (Homo sapiens, UniProt P55212). Briefly: inhibition of CASP6 peptide cleavage – biochemical, VEID-R110 fluorescence, cherry-pick, dose response (AID 720632).
Sequence of Caspase-6 (P55212 24-179 limits assumed): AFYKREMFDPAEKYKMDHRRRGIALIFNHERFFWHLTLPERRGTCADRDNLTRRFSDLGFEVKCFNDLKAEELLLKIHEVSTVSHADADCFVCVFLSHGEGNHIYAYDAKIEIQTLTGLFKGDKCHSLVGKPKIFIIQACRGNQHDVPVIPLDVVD
Sequence of Caspase-6 (P55212 194-293 limits assumed): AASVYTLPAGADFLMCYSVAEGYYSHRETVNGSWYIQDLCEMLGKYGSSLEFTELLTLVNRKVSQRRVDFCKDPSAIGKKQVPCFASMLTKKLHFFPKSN
The target of another assay is Caspase-7 (Homo sapiens, UniProt P55210). Briefly: caspase-7 enzyme inhibition, selectivity check – biochemical, DEVD-R110 fluorescence, cherry-pick, selectivity assay for caspase-6 inhibitor project, dose response (AID 743295). It counts as functional.
Sequence of Caspase-7 (P55210 24-198 limits assumed): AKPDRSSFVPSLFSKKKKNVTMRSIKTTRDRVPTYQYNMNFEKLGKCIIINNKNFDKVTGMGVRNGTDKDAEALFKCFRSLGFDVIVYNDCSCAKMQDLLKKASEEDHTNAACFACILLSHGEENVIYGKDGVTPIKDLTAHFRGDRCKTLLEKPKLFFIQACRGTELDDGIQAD
Sequence of Caspase-7 (P55210 207-303 limits assumed): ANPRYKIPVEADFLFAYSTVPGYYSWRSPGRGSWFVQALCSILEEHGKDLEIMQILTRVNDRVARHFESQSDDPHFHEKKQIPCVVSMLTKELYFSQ
Assay [8] deals with T4, Cannabinoid receptor 2 (Homo sapiens, UniProt P34972). Briefly: SAR analysis of antagonists of the Cannabinoid Receptor 2 using an Image-Based Assay - Set 2. [Related pubchem assays (depositor defined):AID1961, AID1965]. The assay is classed as functional.
T4 sequence (P34972 whole entry): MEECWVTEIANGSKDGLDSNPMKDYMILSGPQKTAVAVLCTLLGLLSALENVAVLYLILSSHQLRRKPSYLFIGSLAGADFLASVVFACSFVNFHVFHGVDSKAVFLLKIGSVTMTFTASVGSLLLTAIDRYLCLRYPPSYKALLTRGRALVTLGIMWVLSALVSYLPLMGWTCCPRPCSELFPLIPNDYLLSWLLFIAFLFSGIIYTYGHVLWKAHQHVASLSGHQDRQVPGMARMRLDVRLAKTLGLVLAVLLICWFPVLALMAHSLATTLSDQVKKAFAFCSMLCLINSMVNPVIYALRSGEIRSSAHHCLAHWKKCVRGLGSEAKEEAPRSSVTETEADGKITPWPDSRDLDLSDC
The target of assay [9] is G-protein coupled receptor 55 (Homo sapiens, UniProt Q9Y2T6). Briefly: SAR analysis of selective Agonists of GPR55 using an Image-Based Assay - Set 2. [Related pubchem assays (depositor defined):AID1961, AID1965]. The assay is classed as functional.
Sequence of G-protein coupled receptor 55 (Q9Y2T6 whole entry): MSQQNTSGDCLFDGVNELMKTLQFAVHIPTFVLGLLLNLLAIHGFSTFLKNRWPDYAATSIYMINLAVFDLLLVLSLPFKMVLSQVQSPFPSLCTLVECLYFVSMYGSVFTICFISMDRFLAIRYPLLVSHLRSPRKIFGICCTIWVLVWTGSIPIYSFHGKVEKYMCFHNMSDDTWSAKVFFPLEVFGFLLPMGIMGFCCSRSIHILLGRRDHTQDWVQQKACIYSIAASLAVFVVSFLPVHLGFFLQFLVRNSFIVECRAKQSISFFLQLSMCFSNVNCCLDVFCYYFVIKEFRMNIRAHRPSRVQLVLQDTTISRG
Assay [10] deals with T4, Cannabinoid receptor 2. Briefly: SAR analysis of agonists of the Cannabinoid Receptor 2 using an Image-Based Assay - Set 2. [Related pubchem assays (depositor defined):AID1961, AID1965]. It counts as functional.
For assay [11], the target named is T5, G-protein coupled receptor 35 (Homo sapiens, UniProt Q9HC97). Briefly: SAR analysis of Agonists of the GPR35 Receptor using an Image-Based Assay - Set 3. [Related pubchem assays (depositor defined):AID1961, AID1965]. The assay is classed as functional.
T5 sequence (Q9HC97 whole entry): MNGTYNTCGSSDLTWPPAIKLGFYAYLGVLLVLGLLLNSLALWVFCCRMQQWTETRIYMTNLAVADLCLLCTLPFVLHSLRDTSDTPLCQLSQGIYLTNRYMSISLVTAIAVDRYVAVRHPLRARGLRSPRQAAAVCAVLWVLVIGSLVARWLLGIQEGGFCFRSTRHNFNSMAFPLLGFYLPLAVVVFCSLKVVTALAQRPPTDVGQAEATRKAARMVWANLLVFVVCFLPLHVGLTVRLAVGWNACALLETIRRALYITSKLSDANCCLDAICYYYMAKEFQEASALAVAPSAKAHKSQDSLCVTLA
The target in assay [12] is T6, Cannabinoid receptor 1 (Homo sapiens, UniProt P21554). Briefly: SAR analysis of antagonists of the Cannabinoid Receptor 1 using an Image-Based Assay - Set 3. [Related pubchem assays (depositor defined):AID1961, AID1965]. It counts as functional.
T6 sequence (P21554 whole entry): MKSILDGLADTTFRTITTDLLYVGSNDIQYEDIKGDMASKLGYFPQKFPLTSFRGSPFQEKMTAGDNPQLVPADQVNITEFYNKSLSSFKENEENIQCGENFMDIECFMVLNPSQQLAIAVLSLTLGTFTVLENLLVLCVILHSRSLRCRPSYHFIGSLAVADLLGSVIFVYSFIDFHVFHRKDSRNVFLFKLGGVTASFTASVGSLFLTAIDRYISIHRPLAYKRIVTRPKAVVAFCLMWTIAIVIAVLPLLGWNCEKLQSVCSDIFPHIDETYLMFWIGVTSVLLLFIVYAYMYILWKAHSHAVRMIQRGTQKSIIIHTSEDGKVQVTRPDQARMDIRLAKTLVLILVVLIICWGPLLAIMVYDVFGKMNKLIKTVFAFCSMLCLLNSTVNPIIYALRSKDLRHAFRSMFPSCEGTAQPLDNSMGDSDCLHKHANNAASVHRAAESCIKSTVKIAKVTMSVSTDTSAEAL
For assay [13], the target named is T6, Cannabinoid receptor 1. Briefly: SAR analysis of agonists of the Cannabinoid Receptor 1 using an Image-Based Assay - Set 3. [Related pubchem assays (depositor defined):AID1961, AID1965]. It counts as functional.
For assay [14], the target named is T5, G-protein coupled receptor 35. Briefly: SAR analysis of Antagonists of the GPR35 Receptor using an Image-Based Assay - Set 4. [Related pubchem assays (depositor defined):[…]]. The assay is classed as functional.

Sequence of Induced myeloid leukemia cell differentiation protein Mcl-1 (Q07820 whole entry): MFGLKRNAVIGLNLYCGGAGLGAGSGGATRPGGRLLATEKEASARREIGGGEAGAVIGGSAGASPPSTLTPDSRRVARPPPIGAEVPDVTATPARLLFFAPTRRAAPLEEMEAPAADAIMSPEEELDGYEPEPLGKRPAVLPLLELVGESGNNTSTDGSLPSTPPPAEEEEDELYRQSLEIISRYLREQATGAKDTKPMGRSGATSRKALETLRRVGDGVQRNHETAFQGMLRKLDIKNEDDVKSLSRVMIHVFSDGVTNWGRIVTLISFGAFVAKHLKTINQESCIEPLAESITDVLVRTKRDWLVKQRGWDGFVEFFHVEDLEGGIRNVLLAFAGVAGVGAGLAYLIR
Sequence of DNA dC->dU-editing enzyme APOBEC-3G (Q9HC16 whole entry): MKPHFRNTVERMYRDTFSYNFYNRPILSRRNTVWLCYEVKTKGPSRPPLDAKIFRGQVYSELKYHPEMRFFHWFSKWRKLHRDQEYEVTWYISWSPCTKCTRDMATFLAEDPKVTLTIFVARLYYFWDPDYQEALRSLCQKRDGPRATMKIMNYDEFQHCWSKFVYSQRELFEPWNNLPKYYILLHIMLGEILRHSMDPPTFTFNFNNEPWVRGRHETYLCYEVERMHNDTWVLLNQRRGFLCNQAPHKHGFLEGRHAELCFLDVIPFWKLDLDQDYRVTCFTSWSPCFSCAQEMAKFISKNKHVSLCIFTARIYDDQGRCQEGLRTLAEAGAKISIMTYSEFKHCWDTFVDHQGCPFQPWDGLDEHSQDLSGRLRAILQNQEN

As a reminder, the EC50 is the concentration at which the effect is half-maximal. On to `COc1ccc(/C=C2\SC(=S)N(CCC(=O)N3CCOCC3)C2=O)cc1`, for which the EC50 in the assay with T-cell is 16.2 µM (active).

The IC50 is the concentration at which inhibition is half-maximal. For `S=C(c1cn(CCOc2ccccc2)c2ccccc12)N1CCOCC1`, the IC50 in assay [1] is > 100 µM (inactive); in assay [2] it was > 99 µM (inactive); in [3], 2.35 µM (active); in assay [4] it was > 99 µM (inactive).

By AC50 is commonly meant the midpoint of the concentration-response curve, whichever way the signal moves. On to `O=C(O)/C(=C\c1ccc(Cl)c([N+](=O)[O-])c1)c1ccc(S(=O)(=O)N2CCCC2)s1`, for which the IC50 in assay [5] is 15 µM (not active); on Bcl-2-like protein 1, > 109 µM (not active); in [6], 19.4 µM (active); in assay [7], 47.8 µM (active). Further, the AC50 at Caspase-6 is 3.82 µM (active); at Caspase-7, > 70 µM (inactive).

As for `Cc1cccc(N2CCN(C(=O)c3cccc(S(=O)(=O)N(C)C)c3)CC2)c1C`, the IC50 (at Cannabinoid receptor 2 [8]; on Cannabinoid receptor 1 [12]; in assay [14]) was > 32 µM (inactive) in each case. Further, the EC50 in assay [9] was 3.12 µM (active); at Cannabinoid receptor 2 [10] it was > 32 µM (inactive); in assay [11], > 32 µM (inactive); at Cannabinoid receptor 1 [13], > 32 µM (inactive).
